# Data reported in patent US5721245A, “4-[3-indolyl]-1H-pyrrolone” (Hoffmann-La Roche Inc., priority 1989, dated 1998).
# pIC50: −log10 of the molar value. Where a name gives a salt, the structure may show the parent alone.
# Target: protein kinase C
# Assay: Inhibition of protein kinase C in vitro (protein kinase-induced incorporation of 32P from [γ-32P]ATP into histone)
# Format: biochemical
# Settings: concentration which reduces by 50% the protein kinase-induced incorporation of 32P from [γ-32P]ATP into histone
# From the text: The IC50 FIGURES in the following Table are that concentration of test compound which reduces by 50% the protein kinase-induced incorporation of ^32 P from [γ-^32 P]ATP into histone.
row,Compound,pIC50
1,"Cn1cc(C2=C(c3c4n(c5ccccc35)CCN(C(=O)CN)C4)C(=O)NC2=O)c2ccccc21 [3-[2-(aminoacetyl)-1,2,3,4-tetrahydropyrazino[1,2-a]indol-10-yl]-4-(1-methyl-3-indolyl)-1H-pyrrole-2,5-dione hydrochloride]",7.30
2,"Cn1cc(C2=C(c3c4n(c5ccccc35)CCC(CN3CCCCC3)C4)C(=O)NC2=O)c2ccccc21 (centres unmarked) [3-[6,7,8,9-tetrahydro-8-[(1-piperidino)methyl]pyrido[1,2-a]indol-10-yl]-4-(1-methyl-3-indolyl)-1H-pyrrole-2,5-dione]",7.52
3,"Cn1cc(C2=C(c3c4n(c5ccccc35)CC(CN)CC4)C(=O)NC2=O)c2ccccc21 (centres unmarked) [3-[7-(aminomethyl)-6,7,8,9-tetrahydropyrido[1,2-a]indol-10-yl]-4-(1-methyl-3-indolyl)-1H-pyrrole-2,5-dione]",7.82
4,"Cn1cc(C2=C(c3c4n(c5ccccc35)CCC(C(=N)N)C4)C(=O)NC2=O)c2ccccc21 (centres unmarked) [3-[8-amidino-6,7,8,9-tetrahydropyrido[1,2-a]indol-10-yl]-4-(1-methyl-3-indolyl)-1H-pyrrole-2,5-dione hydrochloride]",7.22

# Continued by rising pIC50, values first:
row,pIC50,Compound
1,7.70,"CN(C)CC1Cc2c(C3=C(c4cn(C)c5ccccc45)C(=O)NC3=O)c3ccccc3n2C1 (centres unmarked) [3-[2,3-dihydro-2-(dimethylaminomethyl)-1H-pyrrolo[1,2-a]indol-9-yl]-4-(1-methyl-3-indolyl)-1H-pyrrole-2,5-dione trifluoromethanesulphonate]"
2,7.70,"Cn1cc(C2=C(c3c4n(c5ccccc35)CC(CCN)CC4)C(=O)NC2=O)c2ccccc21 (centres unmarked) [3-[7-(2-aminoethyl)-6,7,8,9-tetrahydropyrido[1,2-a]indol-10-yl]-4-(1-methyl-3-indolyl)-1H-pyrrole-2,5-dione hydrochloride]"
3,8.00,"Cn1cc(C2=C(c3c4n(c5ccccc35)CC(CSC(=N)N)CC4)C(=O)NC2=O)c2ccccc21 (centres unmarked) [3-[7-(amidinothiomethyl)-6,7,8,9-tetrahydropyrido[1,2-a]indol-10-yl]-4-(1-methyl-3-indolyl)-1H-pyrrole-2,5-dione methanesulfonate]"
4,8.10,"Cn1cc(C2=C(c3c4n(c5ccccc35)CCC(CN)C4)C(=O)NC2=O)c2ccccc21 (centres unmarked) [3-[8-(aminomethyl)-6,7,8,9-tetrahydropyrido[1,2-a]indol-10-yl]-4-(1-methyl-3-indolyl)-1H-pyrrole-2,5-dione hydrochloride]"
